# Measured values as given in US6013673A, “Naphthyloxy acetic acid derivatives” (Ono Pharmaceutical Co., Ltd., priority 1994, dated 2000).
# Molecular target: T1, prostanoide receptor subtype (mouse EP3 α) (Mus musculus, UniProt P30557)
# T1 construct: expressed in transfected cells; host or cells: CHO cells (membrane fraction)
# T1 sequence (P30557 1-365): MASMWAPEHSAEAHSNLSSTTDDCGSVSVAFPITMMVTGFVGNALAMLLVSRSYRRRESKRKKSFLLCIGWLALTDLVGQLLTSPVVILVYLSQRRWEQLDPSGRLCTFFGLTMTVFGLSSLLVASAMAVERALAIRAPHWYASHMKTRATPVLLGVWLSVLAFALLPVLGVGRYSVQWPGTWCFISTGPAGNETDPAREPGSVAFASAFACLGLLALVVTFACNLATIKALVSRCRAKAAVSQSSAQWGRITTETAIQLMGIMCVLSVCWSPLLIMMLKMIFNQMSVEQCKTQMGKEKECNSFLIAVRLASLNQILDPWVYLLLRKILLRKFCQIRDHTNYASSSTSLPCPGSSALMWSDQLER
# Test: Binding assay using expression cell of prostanoide receptor subtype ([3H]-PGE2 competition)
# Conditions: membrane fraction of CHO cells expressing mouse EP3 α; 2.5 nM [3H]-PGE2; 1 hour, room temperature; buffer pH6.0; Ki=IC50/(1+([C]/Kd)); read-out: Ki (dissociation constant)
# Description: For example, in standard laboratory test, the effects of the compounds of the present invention were confirmed by inhibitory effect on binding PGE2 using expression cell of mouse receptor.
# Binding Assay Using Expression Cell of Prostanoide Receptor Subtype
# The preparation of membrane fraction was carried out according to the method of Sugimoto et al [J. Biol. Chem. 267, 6463-6466(1992)], using expression CHO cell of prostanoide receptor subtype (mouse EP3 α).
# The standard assay mixture contained membrane fraction (0.5 mg/ml), [^3 H]-PGE2 in a final volume of […] was incubated for 1 hour at room temperature. The reaction was terminated by addition of 3 ml of ice-cold buffer. The mixture was rapidly filtered through a glass filter (GF/B). The radioactivity associated with the filter was measured by liquid scintillation counting.
# Kd and Bmax values were determined from Scatchard plots [Ann. N.Y. Acad. Sci., 51, 660(1949)]. Non-specific binding was calculated as the bond in the presence of an excess ([…]) of unlabeled PGE2. In the experiment for competition of specific [^3 H]-PGE2 binding by the compounds of the present invention, [^3 H]-PGE2 was added at a concentration of 2.5 nM and the compounds of the present invention were at a concentration of 1 mM.
# The following buffer was used in all reactions.
# Buffer: 10 mM potassium phosphate (pH6.0), 1 mM EDTA, 10 mM MgCl2, 0.1 M NaCl
# The dissociation constant (Ki) of each compound was calculated by the following equation.
row,SMILES,Ki [nM]
1,"C[C@H](NC(=O)CCc1cccc2c(OCC(=O)O)cccc12)c1ccccc1 [Example 2l, [5-[2-((1S)-1-phenylethyl)aminocarbonylethyl]naphthyl-1-oxy]acetic Acid]",890
2,"CN(C)C(=O)COc1cccc2c(CCC(=O)NC(c3ccccc3)c3ccccc3)cccc12 [Example 4a, N,N-dimethyl-[5-(2-diphenylmethylaminocarbonylethyl)naphthyl-1-oxy]acetic Acid Amide]",200
3,"C[C@@H](NC(=O)CCc1cccc2c(OCC(=O)O)cccc12)c1ccccc1 [Example 2k, [5-[2-((1R)-1-phenylethyl)aminocarbonylethyl]naphthyl-1-oxy]acetic Acid]",830
4,"O=C(CCc1cccc2c(OCCO)cccc12)NC(c1ccccc1)c1ccccc1 [Example 3, 2-[5-(2-diphenylmethylaminocarbonylethyl)naphthyl-1-oxy]ethanol]",26
5,"NC(=O)COc1cccc2c(CCC(=O)NC(c3ccccc3)c3ccccc3)cccc12 [Example 4, [5-(2-diphenylmethylaminocarbonylethyl)naphthyl-1-oxy]acetic Acid Amide]",23
6,"COC(=O)COc1cccc2c(CCC(=O)NC(c3ccccc3)c3ccccc3)cccc12 [Example 1, [5-(2-diphenylmethylaminocarbonylethyl)naphthyl-1-oxy]acetic Acid Methyl Ester]",5700
7,"O=C(O)COc1cccc2c(CCC(=O)NC(c3ccccc3)c3ccccc3)cccc12 [Example 2, [5-(2-diphenylmethylaminocarbonylethyl)naphthyl-1-oxy]acetic Acid]",11
8,"O=C(O)COc1cccc2c(CCC(=O)NN(c3ccccc3)c3ccccc3)cccc12 [Example 2a, [5-[2-(3,3-diphenylcarbazoyl)ethyl]naphthyl-1-oxy]acetic Acid]",110
9,"O=C(O)COc1cccc2c(CCNC(=O)C(c3ccccc3)c3ccccc3)cccc12 [Example 8, [5-[2-(diphenylmethylcarbonylamino)ethyl]naphthyl-1-oxy]acetic Acid]",68
10,"O=C(O)COc1cccc2c(CC(=O)NC(c3ccccc3)c3ccccc3)cccc12 [Example 2d, [5-(diphenylmethylaminocarbonylmethyl)naphthyl-1-oxy]acetic Acid]",50
11,"O=C(COc1cccc2c(CCC(=O)NC(c3ccccc3)c3ccccc3)cccc12)NCCO [Example 4b, N-(2-hydroxyethyl)-[5-(2-diphenylmethylaminocarbonylethyl)naphthyl-1-oxy]acetic Acid Amide]",1300
